From patent US9005575B2, “Arg-Gly-Asp-conjugated alpha-melanocyte stimulating hormone hybrid peptide for use in diagnosing and treating melanoma, including metastatic melanoma and methods related to same” (STC.UNM, priority 2009, dated 2015)
Read-outs that look alike come from different tables or passages of the source. Positions of bridges follow the written chain, without caps; N, C: chain ends. Non-standard residues stand in square brackets, D forms with d. Residues, ends and D or L forms follow the SMILES beside them.

Experiment: Biodistribution in B16/F1 melanoma-bearing C57 mice
Type: in vivo
Conditions: female, C57, mouse, iv, total radioactivity; for tissue uptake at 2 h / tissue uptake dose at 2 h: 2 h post-injection
Protocol: All the animal studies were conducted in compliance with Institutional Animal Care and Use Committee approval. The pharmacokinetics of ^99mTc-RGD-Lys-(Arg^11)CCMSH was determined in B16/F1 melanoma-bearing C57 female mice (Harlan, Indianapolis, Ind.). C57 mice were subcutaneously inoculated on the right flank with 1×10^6 B16/F1 cells. The weight of tumors reached approximately 0.2 g 10 days post cell inoculation. Each melanoma-bearing mouse was injected with 0.037 MBq of ^99mTc-RGD-Lys-(Arg^11)CCMSH via the tail vein. Groups of 5 mice were sacrificed at 0.5, 2, 4 and 24 h post-injection, and tumors and organs of interest were harvested, weighed and counted. Blood values were taken as 6.5% of the whole-body weight. The MC1 receptor specificity of the tumor uptake was determined at 2 h post-injection by co-injecting ^99mTc-RGD-Lys-(Arg^11)CCMSH with 10 μg (6.1 nmol) of unlabeled NDP-MSH, a linear α-MSH peptide analogue with picomolar affinity for the MC1 receptors present on murine melanoma cells. The co-injection of 3.5 μg (6.1 nmol) of RGD peptide was performed to determine the αvβ3 integrin specificity of the tumor uptake 2 h post-injection. Statistical analysis was performed using the Student's t-test for unpaired data.
All the animal studies were conducted in compliance with Institutional Animal Care and Use Committee approval. The pharmacokinetics of ^99mTc-RGD-Arg-(Arg^11)CCMSH was determined in B16/F1 melanoma-bearing C57 female mice (Harlan, Indianapolis, Ind.). C57 mice were subcutaneously inoculated on the right flank with 1×10^6 B16/F1 cells. The weight of tumors reached approximately 0.2 g 10 days post cell inoculation. Each melanoma-bearing mouse was injected with 0.037 MBq of ^99mTc-RGD-Arg-(Arg^11)CCMSH via the tail vein. Groups of 5 mice were sacrificed at 0.5, 2, 4 and 24 h post-injection, and tumors and organs of interest were harvested, weighed and counted. Blood values were taken as 6.5% of the whole-body weight. The MC1 receptor specificity of the tumor uptake was determined at 2 h post-injection by co-injecting ^99mTc-RGD-Arg-(Arg^11)CCMSH with 10 μg (6.1 nmol) of unlabeled NDP-MSH. The co-injection of 3.5 μg (6.1 nmol) of RGD peptide was performed to determine the αvβ3 integrin specificity of the tumor uptake at 2 h post-injection.

CC(C)[C@H](NC(=O)[C@@H]1CCCN1C(=O)[C@H](CCCNC(=N)N)NC(=O)[C@H](CS)NC(=O)[C@H](Cc1c[nH]c2ccccc12)NC(=O)[C@H](CCCNC(=N)N)NC(=O)[C@@H](Cc1ccccc1)NC(=O)[C@H](Cc1c[nH]cn1)NC(=O)[C@H](CCC(=O)O)NC(=O)[C@H](CS)NC(=O)[C@H](CS)NC(=O)[C@H](CCCNC(=N)N)NC(=O)[C@@H]1CC(=O)N[C@@H](CCCNC(=N)N)C(=O)NCC(=O)N[C@@H](CC(=O)O)C(=O)N[C@H](Cc2ccc(O)cc2)C(=O)N1)C(N)=O [^99mTc-RGD-Arg-(Arg^11)CCMSH, metal not drawn] (RGD[dY]DRCCEH[dF]RWCRPV-NH2; lactam N-5)
tissue uptake at 0.5 h (blood, 0.037 MBq, 0.5 h post-injection, read-out: Blood, Percentage Injected Dose/gram): 3.64 ± 0.69 %ID/g | tissue uptake at 2 h (blood, 0.037 MBq, read-out: Blood, Percentage Injected Dose/gram): 0.55 ± 0.47 %ID/g | tissue uptake at 4 h (blood, 0.037 MBq, 4 h post-injection, read-out: Blood, Percentage Injected Dose/gram): 0.71 ± 0.41 %ID/g | tissue uptake at 24 h (blood, 0.037 MBq, 24 h post-injection, read-out: Blood, Percentage Injected Dose/gram): 0.24 ± 0.14 %ID/g | tissue uptake at 2 h (blood, NDP blockade (10 μg NDP-MSH co-injected), read-out: Blood, Percentage Injected Dose/gram): 0.47 ± 0.29 %ID/g | tissue uptake at 2 h (blood, RGD blockade (3.5 μg RGD co-injected), read-out: Blood, Percentage Injected Dose/gram): 0.04 ± 0.01 %ID/g | tissue uptake at 0.5 h (bone, 0.037 MBq, 0.5 h post-injection, read-out: Bone, Percentage Injected Dose/gram): 2.01 ± 0.19 %ID/g | tissue uptake at 2 h (bone, 0.037 MBq, read-out: Bone, Percentage Injected Dose/gram): 0.57 ± 0.15 %ID/g | tissue uptake at 4 h (bone, 0.037 MBq, 4 h post-injection, read-out: Bone, Percentage Injected Dose/gram): 0.97 ± 0.22 %ID/g | tissue uptake at 24 h (bone, 0.037 MBq, 24 h post-injection, read-out: Bone, Percentage Injected Dose/gram): 0.9 ± 0.39 %ID/g | tissue uptake at 2 h (bone, NDP blockade (10 μg NDP-MSH co-injected), read-out: Bone, Percentage Injected Dose/gram): 0.98 ± 0.39 %ID/g | tissue uptake at 2 h (bone, RGD blockade (3.5 μg RGD co-injected), read-out: Bone, Percentage Injected Dose/gram): 0.52 ± 0.42 %ID/g | tissue uptake at 0.5 h (brain, 0.037 MBq, 0.5 h post-injection, read-out: Brain, Percentage Injected Dose/gram): 0.16 ± 0.02 %ID/g | tissue uptake at 2 h (brain, 0.037 MBq, read-out: Brain, Percentage Injected Dose/gram): 0.06 ± 0.02 %ID/g | tissue uptake at 4 h (brain, 0.037 MBq, 4 h post-injection, read-out: Brain, Percentage Injected Dose/gram): 0.04 ± 0.03 %ID/g | tissue uptake at 24 h (brain, 0.037 MBq, 24 h post-injection, read-out: Brain, Percentage Injected Dose/gram): 0.06 ± 0.02 %ID/g | tissue uptake at 2 h (brain, NDP blockade (10 μg NDP-MSH co-injected), read-out: Brain, Percentage Injected Dose/gram): 0.06 ± 0.01 %ID/g | tissue uptake at 2 h (brain, RGD blockade (3.5 μg RGD co-injected), read-out: Brain, Percentage Injected Dose/gram): 0.04 ± 0.01 %ID/g | tissue uptake at 0.5 h (heart, 0.037 MBq, 0.5 h post-injection, read-out: Heart, Percentage Injected Dose/gram): 2.36 ± 0.37 %ID/g | tissue uptake at 2 h (heart, 0.037 MBq, read-out: Heart, Percentage Injected Dose/gram): 0.73 ± 0.27 %ID/g | tissue uptake at 4 h (heart, 0.037 MBq, 4 h post-injection, read-out: Heart, Percentage Injected Dose/gram): 0.53 ± 0.19 %ID/g | tissue uptake at 24 h (heart, 0.037 MBq, 24 h post-injection, read-out: Heart, Percentage Injected Dose/gram): 0.34 ± 0.07 %ID/g | tissue uptake at 2 h (heart, with RGD peptide, 3.5 μg (6.1 nmol) co-injected, RGD blockade (3.5 μg RGD co-injected), read-out: Heart, Percentage Injected Dose/gram): 0.55 ± 0.22 %ID/g | tissue uptake at 2 h (heart, with unlabeled NDP-MSH, 10 μg (6.1 nmol) co-injected, NDP blockade (10 μg NDP-MSH co-injected), read-out: Heart, Percentage Injected Dose/gram): 0.61 ± 0.21 %ID/g | tissue uptake dose at 0.5 h (intestines, 0.037 MBq, 0.5 h post-injection, read-out: Intestines, Percentage Injected Dose): 3.19 ± 0.22 %ID | tissue uptake dose at 2 h (intestines, 0.037 MBq, read-out: Intestines, Percentage Injected Dose): 2.57 ± 0.58 %ID | tissue uptake dose at 4 h (intestines, 0.037 MBq, 4 h post-injection, read-out: Intestines, Percentage Injected Dose): 2.62 ± 0.57 %ID | tissue uptake dose at 24 h (intestines, 0.037 MBq, 24 h post-injection, read-out: Intestines, Percentage Injected Dose): 1.01 ± 0.11 %ID | tissue uptake dose at 2 h (intestines, NDP blockade (10 μg NDP-MSH co-injected), read-out: Intestines, Percentage Injected Dose): 2.34 ± 0.52 %ID | tissue uptake dose at 2 h (intestines, RGD blockade (3.5 μg RGD co-injected), read-out: Intestines, Percentage Injected Dose): 1.79 ± 0.58 %ID | tissue uptake at 0.5 h (kidneys, 0.037 MBq, 0.5 h post-injection, read-out: Kidneys, Percentage Injected Dose/gram): 37.2 ± 4.72 %ID/g | tissue uptake at 2 h (kidneys, 0.037 MBq, read-out: Kidneys, Percentage Injected Dose/gram): 43 ± 8.14 %ID/g | tissue uptake at 4 h (kidneys, 0.037 MBq, 4 h post-injection, read-out: Kidneys, Percentage Injected Dose/gram): 36.6 ± 11.7 %ID/g | tissue uptake at 24 h (kidneys, 0.037 MBq, 24 h post-injection, read-out: Kidneys, Percentage Injected Dose/gram): 16.2 ± 4.01 %ID/g | tissue uptake at 2 h (kidneys, NDP blockade (10 μg NDP-MSH co-injected), read-out: Kidneys, Percentage Injected Dose/gram): 34.8 ± 8.46 %ID/g | tissue uptake at 2 h (kidneys, RGD blockade (3.5 μg RGD co-injected), read-out: Kidneys, Percentage Injected Dose/gram): 38.5 ± 7.45 %ID/g | tissue uptake at 0.5 h (liver, 0.037 MBq, 0.5 h post-injection, read-out: Liver, Percentage Injected Dose/gram): 4.21 ± 1.04 %ID/g | tissue uptake at 2 h (liver, 0.037 MBq, read-out: Liver, Percentage Injected Dose/gram): 3.58 ± 1.08 %ID/g | tissue uptake at 4 h (liver, 0.037 MBq, 4 h post-injection, read-out: Liver, Percentage Injected Dose/gram): 4.93 ± 0.38 %ID/g | tissue uptake at 24 h (liver, 0.037 MBq, 24 h post-injection, read-out: Liver, Percentage Injected Dose/gram): 1.89 ± 0.36 %ID/g | tissue uptake at 2 h (liver, NDP blockade (10 μg NDP-MSH co-injected), read-out: Liver, Percentage Injected Dose/gram): 2.87 ± 0.34 %ID/g | tissue uptake at 2 h (liver, RGD blockade (3.5 μg RGD co-injected), read-out: Liver, Percentage Injected Dose/gram): 2.3 ± 0.22 %ID/g | tissue uptake at 0.5 h (lung, 0.037 MBq, 0.5 h post-injection, read-out: Lung, Percentage Injected Dose/gram): 7.55 ± 1.29 %ID/g | tissue uptake at 2 h (lung, 0.037 MBq, read-out: Lung, Percentage Injected Dose/gram): 2.05 ± 0.52 %ID/g | tissue uptake at 4 h (lung, 0.037 MBq, 4 h post-injection, read-out: Lung, Percentage Injected Dose/gram): 1.01 ± 0.41 %ID/g | tissue uptake at 24 h (lung, 0.037 MBq, 24 h post-injection, read-out: Lung, Percentage Injected Dose/gram): 0.76 ± 0.14 %ID/g | tissue uptake at 2 h (lung, NDP blockade (10 μg NDP-MSH co-injected), read-out: Lung, Percentage Injected Dose/gram): 1.42 ± 0.31 %ID/g | tissue uptake at 2 h (lung, RGD blockade (3.5 μg RGD co-injected), read-out: Lung, Percentage Injected Dose/gram): 1.21 ± 0.5 %ID/g | tissue uptake at 0.5 h (muscle, 0.037 MBq, 0.5 h post-injection, read-out: Muscle, Percentage Injected Dose/gram): 1.79 ± 1.14 %ID/g | tissue uptake at 2 h (muscle, 0.037 MBq, read-out: Muscle, Percentage Injected Dose/gram): 0.21 ± 0.12 %ID/g | tissue uptake at 4 h (muscle, 0.037 MBq, 4 h post-injection, read-out: Muscle, Percentage Injected Dose/gram): 0.32 ± 0.25 %ID/g | tissue uptake at 24 h (muscle, 0.037 MBq, 24 h post-injection, read-out: Muscle, Percentage Injected Dose/gram): 0.25 ± 0.05 %ID/g | tissue uptake at 2 h (muscle, NDP blockade (10 μg NDP-MSH co-injected), read-out: Muscle, Percentage Injected Dose/gram): 0.5 ± 0.12 %ID/g | tissue uptake at 2 h (muscle, RGD blockade (3.5 μg RGD co-injected), read-out: Muscle, Percentage Injected Dose/gram): 0.28 ± 0.2 %ID/g | tissue uptake (normal organs except kidneys, 0.037 MBq, after 2 h post-injection, read-out: Normal organ uptakes except for the kidneys): < 3.6 %ID/g | tissue uptake at 0.5 h (pancreas, 0.037 MBq, 0.5 h post-injection, read-out: Pancreas, Percentage Injected Dose/gram): 1.02 ± 0.36 %ID/g | tissue uptake at 2 h (pancreas, 0.037 MBq, read-out: Pancreas, Percentage Injected Dose/gram): 0.36 ± 0.2 %ID/g | tissue uptake at 4 h (pancreas, 0.037 MBq, 4 h post-injection, read-out: Pancreas, Percentage Injected Dose/gram): 0.37 ± 0.12 %ID/g | tissue uptake at 24 h (pancreas, 0.037 MBq, 24 h post-injection, read-out: Pancreas, Percentage Injected Dose/gram): 0.19 ± 0.09 %ID/g | tissue uptake at 2 h (pancreas, NDP blockade (10 μg NDP-MSH co-injected), read-out: Pancreas, Percentage Injected Dose/gram): 0.37 ± 0.22 %ID/g | tissue uptake at 2 h (pancreas, RGD blockade (3.5 μg RGD co-injected), read-out: Pancreas, Percentage Injected Dose/gram): 0.32 ± 0.17 %ID/g | tissue uptake at 0.5 h (skin, 0.037 MBq, 0.5 h post-injection, read-out: Skin, Percentage Injected Dose/gram): 4.55 ± 1.01 %ID/g
